Measured values: patent US7662576B2, “Method for identifying ester coolers” (International Flavors & Fragrances Inc., priority 2007, dated 2010)
“Also recorded” adds a separate entry of the source.

Biological target: TRPM8 (Homo sapiens, UniProt Q7Z2W7)
Experiment: TRPM8 FLIPR analysis (calcium, Fluo4NW)
Assay type: cell-based
Details: FLIPR, TRPM8 versus TRPA1
Method: (§1) Materials. Fluo4NW solution was prepared by solubilizing one Fluo4NW bottle (Molecular Probes #F36206, component A) in 16 mL of Tyrode buffer (pH 7.4, 130 mM NaCl, 5 mM KCl, 2 mM CaCl2, 1 mM MgCl2, 5 mM NaHCO3, 20 mM HEPES). To the resulting solution was then added 100 μL of water-soluble probenecid (Molecular Probes #F36206, component B).
(§2) Cell Preparation. Cells were trypsinized and 10,000 cells were dispensed per well in poly-lysine-coated, black, clear-bottom 384-well plates (35 μL/well in DMEM without antibiotics). Cells were incubated for 24 hours at 37° C. in 5% CO2. The medium was completely eliminated and 20 (TRPA1) or 40 (TRPM8) μL/well of Fluo4NW solution was added to the plates. Cells were incubated for 1 hour at room temperature protected from light. Two addition kinetic measurements were recorded on the instrument for 7.5 (TRPA1) or 15 (TRPM8) minutes.

Sequence of TRPM8 (Homo sapiens, UniProt Q7Z2W7) (Q7Z2W7 whole entry, species assumed): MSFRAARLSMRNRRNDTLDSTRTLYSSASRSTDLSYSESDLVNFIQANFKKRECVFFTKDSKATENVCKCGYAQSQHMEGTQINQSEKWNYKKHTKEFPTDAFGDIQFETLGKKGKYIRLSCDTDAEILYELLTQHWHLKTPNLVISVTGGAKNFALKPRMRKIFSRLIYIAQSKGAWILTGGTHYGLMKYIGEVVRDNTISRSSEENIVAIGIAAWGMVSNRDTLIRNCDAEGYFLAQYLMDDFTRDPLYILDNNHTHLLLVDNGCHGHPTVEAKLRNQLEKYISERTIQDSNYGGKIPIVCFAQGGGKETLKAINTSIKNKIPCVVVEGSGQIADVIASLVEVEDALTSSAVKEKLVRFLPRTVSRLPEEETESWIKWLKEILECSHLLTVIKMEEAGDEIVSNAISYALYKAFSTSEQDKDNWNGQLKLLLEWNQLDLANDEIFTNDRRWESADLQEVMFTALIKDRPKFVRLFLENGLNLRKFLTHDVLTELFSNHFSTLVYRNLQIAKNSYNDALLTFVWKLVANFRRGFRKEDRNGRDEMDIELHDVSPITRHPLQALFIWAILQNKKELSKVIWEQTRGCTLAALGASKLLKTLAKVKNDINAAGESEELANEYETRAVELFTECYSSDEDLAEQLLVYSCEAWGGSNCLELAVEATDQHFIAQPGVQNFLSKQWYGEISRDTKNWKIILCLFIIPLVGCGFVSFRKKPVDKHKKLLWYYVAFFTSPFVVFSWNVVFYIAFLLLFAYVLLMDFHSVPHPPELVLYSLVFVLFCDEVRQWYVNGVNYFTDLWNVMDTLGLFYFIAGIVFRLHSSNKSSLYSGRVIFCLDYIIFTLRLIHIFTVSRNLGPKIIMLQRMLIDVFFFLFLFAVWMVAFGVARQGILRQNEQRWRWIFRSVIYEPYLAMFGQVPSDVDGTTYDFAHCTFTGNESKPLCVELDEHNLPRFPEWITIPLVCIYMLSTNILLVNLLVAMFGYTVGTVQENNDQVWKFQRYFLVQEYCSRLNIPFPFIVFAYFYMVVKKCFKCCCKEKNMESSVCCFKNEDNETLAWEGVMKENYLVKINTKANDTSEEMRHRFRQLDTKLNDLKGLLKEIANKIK

Row | Molecule | comparison of TRPM8 and TRPA1 response
1 | Ethyl 3-(p-menthane-3-carboxamido)acetate [WS-5] | TRPM8 responding better
2 | CCNC(=O)C1CC(C)CCC1C(C)C (stereo not shown) [WS-3, N-ethyl-p-menthane-3-carboxamide] | TRPM8 responding better

Same assay, conditions: FLIPR, result in words

Row | Molecule | response of TRPM8 channel
3 | Ethyl 3-(p-menthane-3-carboxamido)acetate [WS-5] | responded
4 | CCNC(=O)C1CC(C)CCC1C(C)C (stereo not shown) [WS-3, N-ethyl-p-menthane-3-carboxamide] | responded
5 | CC(C)[C@@H]1CC[C@@H](C)C[C@H]1[O+](C)C(=O)CCCC(=O)O [Cooler 2] | did not respond well
6 | CC(=O)CC(=O)OC1CC(C)CCC1C(C)C (stereo not shown) [Ultracool 7] | did not respond well; also recorded: no response

Same assay, conditions: TRPM8 FLIPR, FIG. 2

Row | Molecule | temporal response
7 | CC(C)[C@@H]1CC[C@@H](C)C[C@H]1O [Menthol] | quick response with deterioration over time
8 | CC1CCC(C(C)C)C(OC(=O)C(C)O)C1 (stereo not shown) [Menthyl Lactate] | quick response with a quick loss of signal

Same assay, conditions: TRPM8 FLIPR; read-out: response relative to the maximal response of amide coolers

Row | Molecule | Emax
9 | CC1CCC(C(C)C)C(OC(=O)C(C)O)C1 (stereo not shown) [Menthyl Lactate] | ~50%

Biological target: T1, human TRPA1 (Homo sapiens, UniProt O75762)
T1 construct: expressed in transfected cells
Experiment: TRPA1 FLIPR analysis (calcium, Fluo4NW) in TREX FLP-IN HEK 293 cells expressing TRPA1
Assay type: cell-based
Details: result in words
Method: Preferred assays to measure TRPA1 channel activity are cell-based assays that utilize cells loaded with ion or voltage-sensitive dyes to report TRPA1 activation. By way of illustration, an inducible TRPA1 cell line was created by stably introducing TRPA1 into TREX-FLPN cells (INVITROGEN). […] In this assay, cells were incubated with a suitable flouroscent dye. […] After obtaining a baseline, various cooling compounds were added and fluorescence measured for several minutes.
as §1, §2
NotI and XhoI restriction sites were also added to the ends to facilitate cloning into expression vectors.
The TRPA1 cDNA was cloned into two expression vectors, pcDNA5/FRT and pcDNA5/FRT/TO (INVITROGEN), using the NotI and XhoI sites. The former vector allows for constitutive expression in mammalian cells the latter for inducible expression in same. Restriction digests, ligations and transformations were performed using routine molecular biological techniques, wherein restriction enzymes were obtained from New England Biolabs, a rapid ligation kit from Roche and competent cells (Max Efficiency DH5 t1 phage-resistant) from INVITROGEN. […]

T1 sequence (O75762 whole entry): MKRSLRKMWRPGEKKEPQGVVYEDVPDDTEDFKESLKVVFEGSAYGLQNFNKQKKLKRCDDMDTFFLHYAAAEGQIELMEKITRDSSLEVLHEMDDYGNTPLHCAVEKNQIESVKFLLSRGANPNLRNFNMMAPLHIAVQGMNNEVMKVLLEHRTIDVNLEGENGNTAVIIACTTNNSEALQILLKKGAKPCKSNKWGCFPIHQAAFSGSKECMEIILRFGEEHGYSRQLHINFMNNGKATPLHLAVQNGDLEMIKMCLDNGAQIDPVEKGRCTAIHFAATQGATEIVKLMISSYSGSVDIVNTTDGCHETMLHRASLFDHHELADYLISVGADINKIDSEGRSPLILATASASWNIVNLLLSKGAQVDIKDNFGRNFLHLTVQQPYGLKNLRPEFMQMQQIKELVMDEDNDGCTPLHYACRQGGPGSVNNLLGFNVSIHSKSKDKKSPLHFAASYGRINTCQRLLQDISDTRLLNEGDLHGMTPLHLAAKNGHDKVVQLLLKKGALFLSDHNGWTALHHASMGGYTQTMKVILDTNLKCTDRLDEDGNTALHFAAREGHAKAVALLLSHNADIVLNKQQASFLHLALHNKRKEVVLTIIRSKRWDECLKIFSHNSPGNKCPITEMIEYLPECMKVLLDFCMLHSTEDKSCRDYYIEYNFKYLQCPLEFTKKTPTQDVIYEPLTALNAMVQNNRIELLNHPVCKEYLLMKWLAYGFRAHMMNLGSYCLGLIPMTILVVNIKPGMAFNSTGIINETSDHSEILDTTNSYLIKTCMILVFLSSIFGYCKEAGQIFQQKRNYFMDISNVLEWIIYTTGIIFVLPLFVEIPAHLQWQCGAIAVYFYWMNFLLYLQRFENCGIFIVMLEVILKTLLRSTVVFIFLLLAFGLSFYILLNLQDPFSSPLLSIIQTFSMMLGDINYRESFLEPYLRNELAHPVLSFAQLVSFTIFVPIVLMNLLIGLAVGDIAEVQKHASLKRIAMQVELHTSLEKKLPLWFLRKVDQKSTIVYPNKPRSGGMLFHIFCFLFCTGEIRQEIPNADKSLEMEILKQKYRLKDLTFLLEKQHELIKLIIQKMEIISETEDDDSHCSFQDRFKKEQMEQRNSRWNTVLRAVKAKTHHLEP

Row | Molecule | response of TRPA1
10 | Ethyl 3-(p-menthane-3-carboxamido)acetate [WS-5] | responded
11 | CCNC(=O)C1CC(C)CCC1C(C)C (stereo not shown) [WS-3, N-ethyl-p-menthane-3-carboxamide] | responded
12 | CC(=O)CC(=O)OC1CC(C)CCC1C(C)C (stereo not shown) [Ultracool 7] | responded to a wide range of concentrations

Tested on: not given
Experiment: not given
Details: compared to (−)-Menthol at 100; source Erman (2003); cited from earlier work

Row | Molecule | Relative Cooling Strengths
13 | (−)-isopulegol [Coolact P] | 25
14 | CC(C)[C@@H]1CC[C@H](C)C[C@H]1O [(+)-Isomenthol] | 11
15 | CC(C)[C@@H]1CC[C@@H](C)C[C@H]1OC[C@H](O)CO [(2R)-3-1-menthoxy)propane-1,2-diol] | 15.8
16 | CC1CCC(C(C)(C)O)C(O)C1 (stereo not shown) [PMD 38, p-menthane-3,8-diol] | 11
17 | CC(C)[C@@H]1CC[C@@H](C)C[C@@H]1O [(+)-Neomenthol] | 32
18 | CC1CCC(C(C)C)C(O)C1 (single isomer, unassigned; (+)) [(+)-Menthol] | 27
19 | CC1CCC(C(C)C)C(C(=O)OCCO)C1 (stereo not shown) [WS-4, Ethyleneglycol p-menthane-3-carboxylate] | 23
20 | Ethyl 3-(p-menthane-3-carboxamido)acetate [WS-5] | 400
21 | CNC(=O)C(C)(C(C)C)C(C)C [WS-23, 2-Isopropyl-N,2,3-trimethylbutyramide] | 75
22 | CCNC(=O)C1CC(C)CCC1C(C)C (stereo not shown) [WS-3, N-ethyl-p-menthane-3-carboxamide] | 150
23 | CC1CCC(C(C)C)C(O)C1 (single isomer, unassigned; (-)) [(−)-Menthol] | 100
24 | CC1CCC(C(C)C)C(OC(=O)C(C)O)C1 (stereo not shown) [Frescolat MGA, menthyl lactate] | 41
25 | CC1CCC(C(C)C)C(O)C1 (single isomer, unassigned; (-)) [(−)-Neomenthol] | 3
26 | (−)-Neoisomenthol | 13
27 | CC(C)[C@@H]1CC[C@@H](C)C[C@H]1OC[C@@H](O)CO [(2S)-3-1-menthoxy)propane-1,2-diol] | 39.5
28 | CC(C)[C@H]1CC[C@@H](C)C[C@@H]1O [(−)-Isomenthol] | 3
29 | CC(C)[C@@H]1CC[C@@H](C)C[C@H]1OCC(O)CO (mixture of isomers) [(2RS)-3-1-menthoxy)propane-1,2-diol] | 22.5
30 | CC1CCC(C(C)C)C(C(=O)NC(C)(C)C)C1 (stereo not shown) [WS-14, N-t-butyl-p-menthane-3-carboxamide] | 75
31 | (+)-Neoisomenthol | 3
32 | COc1ccc(NC(=O)C2CC(C)CCC2C(C)C)cc1 (stereo not shown) [WS-12, N-(4-methoxyphenyl)-p-menthane-3-carboxamide] | 150
33 | 1-glyceryl p-menthane-3-carboxylate [WS-30] | 22.5

Same assay, conditions: with respect to WS-3 at 10.0; U.S. Patent Application No. 20050265930; cited from earlier work

Row | Molecule | relative cooling strength
34 | Ethyl 3-(p-menthane-3-carboxamido)acetate [WS-5] | about 16.7
35 | CNC(=O)C(C)(C(C)C)C(C)C [WS-23, 2-Isopropyl-N,2,3-trimethylbutyramide] | about 5.0
36 | CNC(=O)C1C(C)CCCC1(C)C (stereo not shown) [N,2,2,6-Tetramethylcyclohexane-1-carboxamide] | about 1.0
37 | CCNC(=O)C1CC(C)CCC1C(C)C (stereo not shown) [WS-3, N-ethyl-p-menthane-3-carboxamide] | 10.0
38 | CC(C)[C@@H]1CC[C@@H](C)C[C@H]1OC(=O)CCCC(=O)O [monomenthyl glutarate] | about 3.5
39 | CC1CCC(C(C)C)C(OC(=O)C(C)O)C1 (stereo not shown) [Menthyl Lactate] | about 2.9
40 | CC1CCC(C(C)C)C(C(=O)NC(C)(C)C)C1 (stereo not shown) [WS-14, N-t-butyl-p-menthane-3-carboxamide] | about 5.0
41 | 1-glyceryl p-menthane-3-carboxylate [WS-30] | about 1.5

Biological target: TRPM8 (Mus musculus, UniProt Q8R4D5)
Experiment: not given
Details: Behrendt et al. (2004); cited from earlier work

Sequence of TRPM8 (Mus musculus, UniProt Q8R4D5) (Q8R4D5 whole entry): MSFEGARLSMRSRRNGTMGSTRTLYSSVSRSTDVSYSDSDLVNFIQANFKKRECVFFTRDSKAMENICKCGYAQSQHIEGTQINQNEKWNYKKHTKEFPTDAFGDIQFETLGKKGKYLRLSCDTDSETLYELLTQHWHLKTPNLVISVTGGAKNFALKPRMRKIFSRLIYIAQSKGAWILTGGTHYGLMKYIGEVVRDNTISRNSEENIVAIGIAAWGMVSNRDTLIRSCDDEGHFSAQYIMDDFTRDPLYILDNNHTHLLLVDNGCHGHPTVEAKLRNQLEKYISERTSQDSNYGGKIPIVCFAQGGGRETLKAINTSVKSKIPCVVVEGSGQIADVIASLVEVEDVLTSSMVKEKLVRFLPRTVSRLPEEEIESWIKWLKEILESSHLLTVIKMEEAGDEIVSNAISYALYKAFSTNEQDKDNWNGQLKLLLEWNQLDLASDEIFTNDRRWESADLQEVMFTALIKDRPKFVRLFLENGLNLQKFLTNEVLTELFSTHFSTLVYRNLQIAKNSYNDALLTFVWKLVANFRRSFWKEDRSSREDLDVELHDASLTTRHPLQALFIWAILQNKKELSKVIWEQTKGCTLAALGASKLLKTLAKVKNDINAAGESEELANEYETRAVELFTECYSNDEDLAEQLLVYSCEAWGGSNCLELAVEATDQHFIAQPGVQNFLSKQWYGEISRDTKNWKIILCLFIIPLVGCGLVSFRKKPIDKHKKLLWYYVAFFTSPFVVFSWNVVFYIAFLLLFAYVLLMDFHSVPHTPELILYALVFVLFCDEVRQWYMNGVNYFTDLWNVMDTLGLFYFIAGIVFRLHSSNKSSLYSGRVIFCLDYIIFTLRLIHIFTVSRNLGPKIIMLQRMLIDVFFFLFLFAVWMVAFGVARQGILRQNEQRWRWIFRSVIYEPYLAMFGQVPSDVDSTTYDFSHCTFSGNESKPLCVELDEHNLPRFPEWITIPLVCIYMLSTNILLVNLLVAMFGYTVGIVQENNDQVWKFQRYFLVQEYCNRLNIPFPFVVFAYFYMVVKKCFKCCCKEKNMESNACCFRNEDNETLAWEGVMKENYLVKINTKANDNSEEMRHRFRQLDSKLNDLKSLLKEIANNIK

Row | Molecule | response relative to the level of menthol
42 | CC1CCC(C(C)C)C(OC(=O)C(C)O)C1 (stereo not shown) [Menthyl Lactate] | 50%

Tested on: TRPA1
Experiment: not given
Details: literature; cited from earlier work

Row | Molecule | activation of TRPA1
43 | C=CCN=C=S [mustard oil, allyl isothiocyanate] | activates TRPA1
44 | NC(=O)CI [iodoacetamide] | bind and activate TRPA1
45 | CS(=O)(=O)SCCN [(2-aminoethyl)methanethiosulfonate] | bind and activate TRPA1

Biological target: mouse TRPA1 channel (Mus musculus, UniProt Q8BLA8)
Experiment: not given
Details: literature; cited from earlier work

Sequence of mouse TRPA1 channel (Q8BLA8 whole entry): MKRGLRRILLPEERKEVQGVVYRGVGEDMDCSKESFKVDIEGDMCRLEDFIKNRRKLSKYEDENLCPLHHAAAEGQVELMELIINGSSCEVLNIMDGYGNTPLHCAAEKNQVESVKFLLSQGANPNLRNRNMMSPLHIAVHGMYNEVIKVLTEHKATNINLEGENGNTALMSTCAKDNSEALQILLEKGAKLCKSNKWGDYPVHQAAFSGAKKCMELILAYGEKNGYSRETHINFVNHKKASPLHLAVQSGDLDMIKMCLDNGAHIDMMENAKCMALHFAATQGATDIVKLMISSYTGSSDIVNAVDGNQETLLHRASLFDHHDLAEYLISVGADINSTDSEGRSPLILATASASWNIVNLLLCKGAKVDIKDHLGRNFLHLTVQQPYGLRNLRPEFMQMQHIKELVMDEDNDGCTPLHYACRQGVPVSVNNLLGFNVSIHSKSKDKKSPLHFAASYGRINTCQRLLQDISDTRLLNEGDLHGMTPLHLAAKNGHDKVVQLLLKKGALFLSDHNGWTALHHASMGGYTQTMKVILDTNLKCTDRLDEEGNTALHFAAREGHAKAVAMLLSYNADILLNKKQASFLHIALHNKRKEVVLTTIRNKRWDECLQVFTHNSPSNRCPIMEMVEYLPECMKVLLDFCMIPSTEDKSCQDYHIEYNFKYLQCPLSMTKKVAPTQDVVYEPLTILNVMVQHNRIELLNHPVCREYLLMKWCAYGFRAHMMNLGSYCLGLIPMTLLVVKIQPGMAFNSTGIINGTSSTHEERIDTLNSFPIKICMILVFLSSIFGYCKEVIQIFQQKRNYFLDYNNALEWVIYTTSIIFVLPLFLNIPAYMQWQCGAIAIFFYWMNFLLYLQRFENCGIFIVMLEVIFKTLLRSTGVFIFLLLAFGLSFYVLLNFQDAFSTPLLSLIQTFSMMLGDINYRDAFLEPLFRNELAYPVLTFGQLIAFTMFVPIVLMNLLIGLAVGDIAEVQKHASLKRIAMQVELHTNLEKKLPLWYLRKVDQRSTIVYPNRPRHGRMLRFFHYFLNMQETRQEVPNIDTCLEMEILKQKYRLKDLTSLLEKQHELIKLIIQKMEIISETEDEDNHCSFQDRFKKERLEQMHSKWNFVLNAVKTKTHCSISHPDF

Row | Molecule | activation of mouse TRPA1 channel
46 | CCCCC[C@H](O)CC(=O)CCc1ccc(O)c(OC)c1 [gingerol] | activated
47 | COC(=O)c1ccccc1O [methyl salicylate] | activated
48 | O=CC=Cc1ccccc1 [cinnamaldehyde] | activated
49 | C=CCc1ccc(O)c(OC)c1 [eugenol] | activated
